Reference: patent US20260166162A1, “CARBON CHAIN SUBSTANCE FOR REGULATING TRANSMEMBRANE TRANSPORT AND FLUIDITY OF CELL MEMBRANES, AND PREPARATION AND USE THEREOF” (priority 2022, published 2026)
Read-outs that look alike come from different tables or passages of the source.

Assays:
[1] = tested on: 293T cells; assay: Cellular phagocytosis of DiD-loaded lipid vesicles (nano-drugs) by 293T cells (Example II-51, Table II-29); type: cell-based; settings: 293T cells pretreated 4 h, DiD lipid vesicles 2 h, n=3, untreated control 226.46 ± 1.26
[2] = tested on: rabies pseudovirus; type: cell-based; settings: n=3
[3] = tested on: TNF-α; assay: Skin photoaging (UVB) in BALB/c nude mice, serum TNF-α (Example II-54, Table II-32); type: in vivo, mouse; settings: UVB-irradiated BALB/c nude mice, 40 days
[4] = tested on: IL-6; assay: Skin photoaging (UVB) in BALB/c nude mice, serum IL-6 (Example II-54, Table II-34); type: in vivo, mouse; settings: serum, UVB-irradiated BALB/c nude mice, 40 days
[5] = tested on: IL-1β; assay: Skin photoaging (UVB) in BALB/c nude mice, serum IL-1β (Example II-54, Table II-33); type: in vivo, mouse; settings: serum, UVB-irradiated BALB/c nude mice, 40 days
[6] = tested on: Neocopyovirus; type: in vivo; settings: 1 mM; n=3
[7] = tested on: SARS-CoV-2 pseudovirus (B.1.526.2); type: cell-based; settings: n=3
[8] = tested on: Hela cells; assay: Cell membrane fluidity (Laurdan fluorescence recovery) in Hela cells; type: cell-based

CC/C=C\C/C=C\C/C=C\C/C=C\C/C=C\C/C=C\CCC(=O)OCC(O)C1OC(=O)C(O)=C1O (stereo not drawn) [Ascorbic Acid-DHA]
Fluorescence intensity ([1]; 2 nM): 98.37 ± 7.89 | Fluorescence intensity ([1]; 5 nM): 92.26 ± 8.23 | Fluorescence intensity ([1]; 10 nM): 69.70 ± 4.55 | Fluorescence intensity ([1]; 50 nM): 73.98 ± 5.36 | Fluorescence intensity ([1]; 100 nM): 243.38 ± 11.00 | Fluorescence intensity ([1]; 1 uM): 253.70 ± 10.23 | Fluorescence intensity ([1]; 10 uM): 58.97 ± 1.55 | Fluorescence intensity ([1]; 50 uM): 39.02 ± 1.03 | Fluorescence intensity ([1]; 100 uM): 19.86 ± 0.23 | Inhibition rate (%) ([2]; 2 nM): 51.40 ± 1.54% | Inhibition rate (%) ([2]; 5 nM): 51.99 ± 3.99% | Inhibition rate (%) ([2]; 10 nM): 64.84 ± 6.57% | Inhibition rate (%) ([2]; 50 nM): 70.88 ± 4.22% | Inhibition rate (%) ([2]; 100 nM): 79.06 ± 2.39% | Inhibition rate (%) ([2]; 1 μM): 14.83 ± 4.26% | Inhibition rate (%) ([2]; 10 μM): 34.88 ± 5.99% | Inhibition rate (%) ([2]; 50 μM): 95.55 ± 6.98% | Inhibition rate (%) ([2]; 100 μM): 99.08 ± 6.36%

CCC=CCC=CCC=CCCCCCCCC(=O)OCC(N)C(=O)O (stereo not drawn) [Ser-linolenic acid]
TNF-α ([3]; 30 μM smeared): 51 pg/mL | TNF-α ([3]; 50 μM smeared): 49 pg/mL | TNF-α ([3]; 100 μM smeared): 47 pg/mL | IL-6 ([4]; 30 μM smeared): 29 pg/mL | IL-6 ([4]; 50 μM smeared): 33 pg/mL | IL-6 ([4]; 100 μM smeared): 31 pg/mL | IL-1β ([5]; 30 μM smeared): 62 pg/mL | IL-1β ([5]; 50 μM smeared): 53 pg/mL | IL-1β ([5]; 100 μM smeared): 58 pg/mL

CCC=CCC=CCC=CCC=CCC=CCCCC(=O)OCC(N)C(=O)O (stereo not drawn) [Serine-EPA]
Fluorescence intensity [6]: 4.8 ± 0.96

CCCCCC=CCC=CCCCCCCCC(=O)OCC(N)C(=O)O (stereo not drawn) [Serine-LA]
Fluorescence intensity ([1]; 2 nM): 89.36 ± 0.21 | Fluorescence intensity ([1]; 5 nM): 46.06 ± 0.02 | Fluorescence intensity ([1]; 10 nM): 49.05 ± 0.22 | Fluorescence intensity ([1]; 50 nM): 51.34 ± 0.32 | Fluorescence intensity ([1]; 100 nM): 59.65 ± 0.54 | Fluorescence intensity ([1]; 1 uM): 458.20 ± 0.55 | Fluorescence intensity ([1]; 10 uM): 103.58 ± 0.71 | Fluorescence intensity ([1]; 50 uM): 110.15 ± 0.41 | Fluorescence intensity ([1]; 100 uM): 14.31 ± 0.13 | Fluorescence intensity [6]: 2.8 ± 0.56 | Inhibition rate (%) ([7]; 2 nM): 60.54 ± 5.59% | Inhibition rate (%) ([7]; 5 nM): 79.66 ± 5.97% | Inhibition rate (%) ([7]; 10 nM): 78.34 ± 4.87% | Inhibition rate (%) ([7]; 50 nM): 77.33 ± 4.56% | Inhibition rate (%) ([7]; 100 nM): 73.66 ± 1.33% | Inhibition rate (%) ([7]; 1 μM): -102.33 ± 4.36% | Inhibition rate (%) ([7]; 10 μM): 54.26 ± 0.53% | Inhibition rate (%) ([7]; 50 μM): 51.36 ± 0.87% | Inhibition rate (%) ([7]; 100 μM): 93.68 ± 0.73%

CCCCCCCC(=O)O [n-octanoic acid]
Fluorescence intensity ([1]; 2 nM): 157.30 | Fluorescence intensity ([1]; 5 nM): 108.56 | Fluorescence intensity ([1]; 10 nM): 83.70 | Fluorescence intensity ([1]; 50 nM): 76.25 | Fluorescence intensity ([1]; 100 nM): 106.35 | Fluorescence intensity ([1]; 1 uM): 141.79 | Fluorescence intensity ([1]; 10 uM): 124.85 | Fluorescence intensity ([1]; 50 uM): 64.86 | Fluorescence intensity ([1]; 100 uM): 36.35 ± 6.23 | Fluorescence intensity [6]: 5.8 ± 0.76 | Fluorescence recovery rate % ([8]; 2 nM, 20 s): 65.57% | Fluorescence recovery rate % ([8]; 2 nM, 40 s): 66.78% | Fluorescence recovery rate % ([8]; 2 nM, 60 s): 66.54% | Fluorescence recovery rate % ([8]; 2 nM, 80 s): 67.22% | Fluorescence recovery rate % ([8]; 5 nM, 20 s): 66.75% | Fluorescence recovery rate % ([8]; 5 nM, 40 s): 67.05% | Fluorescence recovery rate % ([8]; 5 nM, 60 s): 67.59% | Fluorescence recovery rate % ([8]; 5 nM, 80 s): 66.98% | Fluorescence recovery rate % ([8]; 10 nM, 20 s): 64.02% | Fluorescence recovery rate % ([8]; 10 nM, 40 s): 65.23% | Fluorescence recovery rate % ([8]; 10 nM, 60 s): 65.45% | Fluorescence recovery rate % ([8]; 10 nM, 80 s): 66.51% | Fluorescence recovery rate % ([8]; 50 nM, 20 s): 67.32% | Fluorescence recovery rate % ([8]; 50 nM, 40 s): 67.94% | Fluorescence recovery rate % ([8]; 50 nM, 60 s): 68.02% | Fluorescence recovery rate % ([8]; 50 nM, 80 s): 68.65% | Fluorescence recovery rate % ([8]; 50 μM, 20 s): 64.31% | Fluorescence recovery rate % ([8]; 50 μM, 40 s): 69.09% | Fluorescence recovery rate % ([8]; 50 μM, 60 s): 73.41% | Fluorescence recovery rate % ([8]; 50 μM, 80 s): 78.32% | Fluorescence recovery rate % ([8]; 100 μM, 20 s): 66.15% | Fluorescence recovery rate % ([8]; 100 μM, 40 s): 71.58% | Fluorescence recovery rate % ([8]; 100 μM, 60 s): 75.11% | Fluorescence recovery rate % ([8]; 100 μM, 80 s): 79.84%
